From PMC3871589, “Evaluation of STAT3 Signaling in ALDH+ and ALDH+/CD44+/CD24− Subpopulations of Breast Cancer Cells” (PLoS ONE, 2013)
pIC50: −log10 of the molar value.

Key:
[1] = target: JAK2 (Homo sapiens, UniProt O60674); assay: Kinase profiler assay, JAK2; type: biochemical; conditions: 10 concentrations, 100 µM highest; Table S3
Description: (§1) The effects of LLL12 on twenty six purified human protein kinases were performed at the Millipore UK Limited (Dundee, UK) and Reaction Biology Corp. (Malvern, PA) using the Kinase profiler assay. Assays contained a peptide substrate, purified recombinant human protein kinases to be tested, and gamma-labeled ATP, magnesiumion. Radioactive phosphorylated product was measured and quantitated via a scintillation counter.

[2] = target: PYK2 (Homo sapiens, UniProt Q14289); assay: Kinase profiler assay, PYK2; type: biochemical; conditions: 10 concentrations, 100 µM highest; Table S3
Description: as §1

[3] = target: Fyn (Homo sapiens, UniProt P06241); assay: Kinase profiler assay, Fyn; type: biochemical; conditions: 10 concentrations, 100 µM highest; Table S3
Description: as §1

[4] = target: AKT1 (Homo sapiens, UniProt P31749); assay: Kinase profiler assay, AKT1; type: biochemical; conditions: bound stated jointly for the other protein kinases; Table S3
Description: as §1

[5] = target: ErB2/HER2 (Homo sapiens, UniProt P04626); conditions: read-out: IC50 on ErB2/HER2; bound stated jointly for the other protein kinases; Table S3
Description: as §1

[6] = target: Met (Homo sapiens, UniProt P08581); assay: Kinase profiler assay, Met; type: biochemical; conditions: bound stated jointly for the other protein kinases; Table S3
Description: as §1

[7] = tested on: STAT3 target genes Cyclin D1, survivin, Bcl-2 and Twist1; assay: Expression of STAT3 target genes in un-separated breast cancer cells; type: cell-based, human; conditions: un-separated MDA-MB-231, SK-BR-3, SUM159 cells; 10 µM, 24 hours
Description: LLL12 was synthesized in Dr. Pui-Kai Li’s laboratory (College of Pharmacy, The Ohio State University). Un-separated cells were treated with 10 µM of LLL12 or DMSO for 24 hours, and the phosphorylation of STAT3 (Y705), and ERK 1/2 (T202/Y204), and expression of STAT3 downstream genes, cleaved caspase-3, and PARP were detected by Western blots. (JPG) Click here for additional data file.

[8] = tested on: ALDH+ subpopulations of SK-BR-3, MDA-MB-231, and SUM159; assay: Tumorsphere formation, ALDH+ subpopulations; type: cell-based, human; conditions: 2.5–10 µmol/L, 10 to 15 days
Description: ALDH^+ and ALDH^+/CD44^+/CD24^− cells were plated as single cells in ultra-low attachment six-well plates at a density of 250, 500, 1000 or 50,000 viable cells/well as previously described. On the second day after seeding, the ALDH^+ cancer cells were treated with 2.5–10 µmol/L of LLL12 or Stattic. For tumorsphere forming capacity assay, ALDH^+ or ALDH^− cells were plated as single cells in ultra-low attachment six-well plates at a density of 250, 500 or 1000 viable cells/well. Tumorsphere growth was observed under a microscope 10 to 15 days later.

[9] = tested on: MDA-MB-231 ALDH+ breast cancer stem-like cells; assay: Mouse xenograft of MDA-MB-231 ALDH+ breast cancer stem-like cells; type: in vivo, NOD/SCID mice; conditions: 5 mg/kg IP daily
Description: All animal studies were conducted in accordance with the principles and standard procedures approved by IACUC at the Research Institute at Nationwide Children’s Hospital and the University Committee on the Use and Care of Animals at the University of Michigan. ALDH^+ subpopulations of MDA-MB-231 and ALDH^+/CD44^+/CD24^− subpopulations of SUM-159 breast cancer cells (1×10^5) respectively were injected subcutaneous (s.c.) into the flank area of female Non-obese diabetic (NOD)/Severe combined immunodeficiency (SCID) mice which were purchased from Jackson Laboratory.

[10] = tested on: ALDH+/CD44+/CD24− subpopulation of MDA-MB-231 and SUM159; assay: Caspase-3 cleavage in ALDH+/CD44+/CD24− cells; type: cell-based, human; conditions: 0.5–5 µM
Description: The ALDEFLUOR kit (StemCell Technologies) was used to isolate the population with high ALDH enzymatic activity as previously described. Briefly, cells were trypsinized to single cells using 0.05% trypsin and subsequently suspended in ALDEFLUOR assay buffer containing ALDH substrate (BAAA, 1 µmol/l per 1×10^6 cells) and then incubated for 40 minutes at 37°C. For each sample, an aliquot of cells was stained under identical conditions with 15 mmol/L diethylaminobenzaldehyde (DEAB), a specific ALDH inhibitor, as an ALDH^− control. Anti-human PE-CD24 and PE-Cy5-CD44 antibody (BioLegend) were used for CD44/CD24 identification and to separate ALDH^+/CD44^+/CD24^− and ALDH^−/CD44^+/CD24^+ cells when combined with ALDH staining. Analysis was performed using a FACStarPLUS (Becton Dickinion) flow cytometer. To assess the effect of STAT3 inhibitors on the subpopulation of ALDH^+ cells, un-separated breast cancer cells were treated with 5 µmol/L of LLL12 or 10 µmol/L Stattic for 24 hours prior to performing the ALDEFLUOR assay.
After sorting by flow cytometry, ALDH^+ and ALDH^+/CD44^+/CD24^− stem-like cells were cultured in serum-free stem cell medium in ultra-low attachment six-well plates (Corning) to maintain cancer stem cell characteristics. […]

[11] = tested on: ALDH+/CD44+/CD24− subpopulation of MDA-MB-231 and SUM159 breast cancer cells; assay: Cell viability of ALDH+/CD44+/CD24− subpopulation; type: cell-based, human; conditions: Figure 5D
Description: The breast cancer cells were seeded in 96-well plates (3,000 cells/well) in triplicates in a serum-free mammary epithelial basal medium. The following day, cancer cells were treated with 1 to 10 µmol/L of LLL12 or Stattic for 72 hours, STAT3 ShRNA or control GFP shRNA lentivirus (CTL ShRNA) for 48 hours. MTT (Thiazolyl Blue Tetrazolium Bromide, Sigma-Aldrich) assay was used to determine the cell viability.

[12] = 5 mg/kg IP daily; data not shown
[13] = tested on: STAT3; conditions: cited from earlier work

Chain of Met (P08581 25-1390): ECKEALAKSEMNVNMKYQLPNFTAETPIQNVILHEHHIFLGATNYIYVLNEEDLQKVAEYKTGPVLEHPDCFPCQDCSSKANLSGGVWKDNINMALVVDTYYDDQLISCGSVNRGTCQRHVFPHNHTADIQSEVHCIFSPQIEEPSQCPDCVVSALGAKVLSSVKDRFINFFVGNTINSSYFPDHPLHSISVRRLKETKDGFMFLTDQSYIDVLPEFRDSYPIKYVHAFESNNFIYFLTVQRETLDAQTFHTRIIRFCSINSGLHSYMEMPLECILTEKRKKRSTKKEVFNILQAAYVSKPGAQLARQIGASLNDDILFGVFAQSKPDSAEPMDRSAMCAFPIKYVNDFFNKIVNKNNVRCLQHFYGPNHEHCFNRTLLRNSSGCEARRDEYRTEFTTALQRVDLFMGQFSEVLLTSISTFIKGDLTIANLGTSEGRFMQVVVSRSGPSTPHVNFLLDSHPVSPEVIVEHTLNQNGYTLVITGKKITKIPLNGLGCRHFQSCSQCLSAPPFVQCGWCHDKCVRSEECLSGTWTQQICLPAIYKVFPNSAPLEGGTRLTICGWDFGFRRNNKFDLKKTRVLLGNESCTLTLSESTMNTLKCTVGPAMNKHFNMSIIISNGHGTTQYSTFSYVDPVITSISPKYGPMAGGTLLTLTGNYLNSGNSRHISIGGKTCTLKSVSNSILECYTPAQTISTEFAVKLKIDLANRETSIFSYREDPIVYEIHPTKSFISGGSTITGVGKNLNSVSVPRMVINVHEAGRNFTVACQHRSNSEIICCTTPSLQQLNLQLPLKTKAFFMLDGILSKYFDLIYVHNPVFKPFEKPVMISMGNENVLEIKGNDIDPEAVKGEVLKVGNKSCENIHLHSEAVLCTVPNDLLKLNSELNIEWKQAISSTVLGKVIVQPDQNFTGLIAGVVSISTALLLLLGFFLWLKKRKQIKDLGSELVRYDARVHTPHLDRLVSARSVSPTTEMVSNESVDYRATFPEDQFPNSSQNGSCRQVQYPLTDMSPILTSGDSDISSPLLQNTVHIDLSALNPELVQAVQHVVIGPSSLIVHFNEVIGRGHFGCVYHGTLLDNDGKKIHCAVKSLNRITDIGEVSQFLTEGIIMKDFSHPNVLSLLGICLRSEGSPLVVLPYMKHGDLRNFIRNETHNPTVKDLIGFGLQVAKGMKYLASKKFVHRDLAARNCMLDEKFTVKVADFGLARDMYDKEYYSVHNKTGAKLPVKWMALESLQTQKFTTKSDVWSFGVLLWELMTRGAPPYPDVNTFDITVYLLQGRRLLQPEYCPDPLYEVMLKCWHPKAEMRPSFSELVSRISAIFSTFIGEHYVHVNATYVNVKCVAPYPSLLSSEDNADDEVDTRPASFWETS
Chain of PYK2 (Q14289 whole entry): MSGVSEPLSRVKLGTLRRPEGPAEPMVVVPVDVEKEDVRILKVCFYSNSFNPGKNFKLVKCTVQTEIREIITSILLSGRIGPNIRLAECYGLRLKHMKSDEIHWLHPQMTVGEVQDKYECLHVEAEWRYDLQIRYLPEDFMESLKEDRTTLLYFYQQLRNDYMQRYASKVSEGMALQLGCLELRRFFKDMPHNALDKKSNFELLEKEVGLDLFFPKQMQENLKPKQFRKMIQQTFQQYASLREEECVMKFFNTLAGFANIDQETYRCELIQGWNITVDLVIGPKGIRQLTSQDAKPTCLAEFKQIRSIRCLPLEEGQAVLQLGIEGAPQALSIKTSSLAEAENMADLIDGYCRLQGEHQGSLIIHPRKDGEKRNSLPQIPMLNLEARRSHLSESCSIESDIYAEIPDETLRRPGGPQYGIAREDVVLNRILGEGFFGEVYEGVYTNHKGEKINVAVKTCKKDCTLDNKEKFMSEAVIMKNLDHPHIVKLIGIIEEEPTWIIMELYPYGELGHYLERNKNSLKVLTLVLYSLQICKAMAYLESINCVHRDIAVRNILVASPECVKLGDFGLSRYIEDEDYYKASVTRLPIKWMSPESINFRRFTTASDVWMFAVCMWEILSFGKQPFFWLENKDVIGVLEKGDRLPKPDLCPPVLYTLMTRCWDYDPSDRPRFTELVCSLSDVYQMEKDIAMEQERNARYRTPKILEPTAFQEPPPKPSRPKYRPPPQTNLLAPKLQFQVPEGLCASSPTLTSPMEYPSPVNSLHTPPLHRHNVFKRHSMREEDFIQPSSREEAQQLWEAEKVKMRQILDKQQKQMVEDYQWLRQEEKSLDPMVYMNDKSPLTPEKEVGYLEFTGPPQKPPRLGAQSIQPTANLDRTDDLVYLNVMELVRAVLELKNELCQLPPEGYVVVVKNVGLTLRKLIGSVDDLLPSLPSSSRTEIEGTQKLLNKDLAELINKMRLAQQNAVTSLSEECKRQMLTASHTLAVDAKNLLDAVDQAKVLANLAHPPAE
Chain of ErB2/HER2 (P04626 23-1255): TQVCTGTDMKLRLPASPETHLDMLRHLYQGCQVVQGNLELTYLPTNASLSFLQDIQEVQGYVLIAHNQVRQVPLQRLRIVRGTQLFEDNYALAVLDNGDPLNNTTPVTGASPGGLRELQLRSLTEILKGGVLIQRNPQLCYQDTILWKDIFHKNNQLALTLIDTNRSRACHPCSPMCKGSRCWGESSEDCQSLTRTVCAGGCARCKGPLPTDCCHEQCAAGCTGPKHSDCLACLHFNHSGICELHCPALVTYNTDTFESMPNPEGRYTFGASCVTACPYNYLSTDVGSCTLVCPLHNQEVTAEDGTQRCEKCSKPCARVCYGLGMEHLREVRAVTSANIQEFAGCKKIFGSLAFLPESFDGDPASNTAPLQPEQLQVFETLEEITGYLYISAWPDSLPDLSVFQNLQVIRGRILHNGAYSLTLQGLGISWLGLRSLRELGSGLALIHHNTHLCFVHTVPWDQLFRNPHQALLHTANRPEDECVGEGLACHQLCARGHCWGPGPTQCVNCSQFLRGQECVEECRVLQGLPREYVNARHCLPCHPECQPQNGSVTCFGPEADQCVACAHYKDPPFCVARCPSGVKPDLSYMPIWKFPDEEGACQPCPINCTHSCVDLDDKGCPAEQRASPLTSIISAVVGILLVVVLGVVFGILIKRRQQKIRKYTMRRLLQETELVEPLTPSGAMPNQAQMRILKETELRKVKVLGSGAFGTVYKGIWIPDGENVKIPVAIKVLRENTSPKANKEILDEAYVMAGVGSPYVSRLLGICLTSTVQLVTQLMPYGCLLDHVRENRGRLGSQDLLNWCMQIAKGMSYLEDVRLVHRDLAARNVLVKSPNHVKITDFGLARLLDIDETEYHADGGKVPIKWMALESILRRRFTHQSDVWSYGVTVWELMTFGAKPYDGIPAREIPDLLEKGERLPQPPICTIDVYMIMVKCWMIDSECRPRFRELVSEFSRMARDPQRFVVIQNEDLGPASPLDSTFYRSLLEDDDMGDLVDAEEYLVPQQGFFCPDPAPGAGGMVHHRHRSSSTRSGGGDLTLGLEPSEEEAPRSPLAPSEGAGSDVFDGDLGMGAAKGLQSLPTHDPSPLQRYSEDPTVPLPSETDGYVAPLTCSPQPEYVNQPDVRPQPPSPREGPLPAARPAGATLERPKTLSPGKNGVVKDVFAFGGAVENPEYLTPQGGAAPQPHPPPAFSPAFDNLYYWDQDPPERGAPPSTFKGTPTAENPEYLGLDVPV
Chain of Fyn (P06241 whole entry): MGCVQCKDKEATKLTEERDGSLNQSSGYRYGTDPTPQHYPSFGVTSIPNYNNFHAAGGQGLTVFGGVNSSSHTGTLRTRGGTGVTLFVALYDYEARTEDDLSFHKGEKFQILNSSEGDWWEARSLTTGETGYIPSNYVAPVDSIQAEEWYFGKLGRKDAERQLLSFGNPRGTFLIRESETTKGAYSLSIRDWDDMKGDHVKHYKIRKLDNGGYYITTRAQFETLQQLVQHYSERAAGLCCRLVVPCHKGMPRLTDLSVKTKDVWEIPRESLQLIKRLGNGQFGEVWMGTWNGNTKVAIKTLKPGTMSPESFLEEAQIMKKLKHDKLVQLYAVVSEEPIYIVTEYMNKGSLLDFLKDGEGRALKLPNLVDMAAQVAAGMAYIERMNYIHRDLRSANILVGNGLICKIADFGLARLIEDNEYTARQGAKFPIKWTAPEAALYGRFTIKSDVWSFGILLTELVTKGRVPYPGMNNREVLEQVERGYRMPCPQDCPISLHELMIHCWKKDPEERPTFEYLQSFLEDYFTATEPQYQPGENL
Chain of AKT1 (P31749 whole entry): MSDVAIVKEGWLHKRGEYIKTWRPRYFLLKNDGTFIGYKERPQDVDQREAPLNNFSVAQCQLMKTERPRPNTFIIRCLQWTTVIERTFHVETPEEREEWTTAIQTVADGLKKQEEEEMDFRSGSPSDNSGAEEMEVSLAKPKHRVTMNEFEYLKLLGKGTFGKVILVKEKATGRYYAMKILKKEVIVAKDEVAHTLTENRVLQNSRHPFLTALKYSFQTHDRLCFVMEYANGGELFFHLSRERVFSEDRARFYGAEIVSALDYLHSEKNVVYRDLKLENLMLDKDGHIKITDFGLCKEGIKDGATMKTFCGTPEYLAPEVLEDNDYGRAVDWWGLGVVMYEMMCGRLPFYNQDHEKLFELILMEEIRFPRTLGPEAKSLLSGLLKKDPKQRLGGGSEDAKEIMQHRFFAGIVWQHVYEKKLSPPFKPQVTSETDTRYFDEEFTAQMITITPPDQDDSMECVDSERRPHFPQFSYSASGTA

## NS(=O)(=O)c1cccc2c1C(=O)c1cccc(O)c1C2=O [LLL12]
[1]
  pIC50: < 4.00
[2]
  pIC50: < 4.00
[3]
  pIC50: < 4.00
[4]
  pIC50: ≤ 4.11
[5]
  pIC50: ≤ 4.11
[6]
  pIC50: ≤ 4.11
[7]
  expression of STAT3 target genes Cyclin D1, survivin, Bcl-2 and Twist1: inhibited
[8]
  tumorsphere formation: suppress
[9]; 15 days, P<0.05 vs vehicle
  tumor volume: significantly suppressed
  tumor weight: significantly suppressed
[9]; Western blot of tumors
  P-STAT3 in tumor tissue: decreased
  cleaved caspase-3 in tumor tissue: increased
[10]
  caspase-3 cleavage: induced caspase-3 cleavage
[11]
  cell viability: inhibited
[12]
  body weight compared to vehicle control: did not differ
[13]
  STAT3 DNA binding activity: inhibited
